Values of other authors, collected in patent publication US20070071683A1, “Ultrasonic concentration of carrier particles” (The Regents of the University of California, priority 2005, published 2007).

Test system: tumor
Details: paclitaxel alone

## CC(=O)O[C@H]1C(=O)[C@@]2(C)[C@H]([C@H](OC(=O)c3ccccc3)[C@]3(O)C[C@H](OC(=O)[C@H](O)[C@@H](NC(=O)c4ccccc4)c4ccccc4)C(C)=C1C3(C)C)[C@]1(OC(C)=O)CO[C@@H]1C[C@@H]2O [paclitaxel]
  effect on tumor volume: did not affect tumor volume
